Measured values reported in patent US20240018158A1, “BRM TARGETING COMPOUNDS AND ASSOCIATED METHODS OF USE” (Prelude Therapeutics Incorporated, priority 2020, published 2024).

Target: SMARCA2 (Homo sapiens (Human), UniProt P51531)
Test: SMARCA2 HiBiT degradation assay in HEK293T cells
Assay type: cell-based
Conditions: 293T HiBiT assay, 24 h; for DC50: read-out: DC50 (SM2-293T) SMARCA2 degradation potency; for Dmax: HEK-293T, read-out: Dmax % (SM2-293T) maximum SMARCA2 degradation within the concentrations tested
Experimental: HiBiT peptide knock-in of SMARCA2 in LgBiT expressing HEK293T cells was performed by CRISPR-mediated tagging system as described Promega. The homozygous HiBiT knock-in on c-terminus SMARCA2 was confirmed by sanger sequence. SMARCA2-HiBiT knock-in Hela monoclonal cell (CS302366) and SMARCA4-HiBiT knock-in Hela monoclonal cell (CS3023226) were purchased from Promega. The heterozygous HiBiT-knock-in was confirmed by sanger sequence in both SMARCA2-HiBiT and SMARCA4-HiBiT monoclonal cells. Compounds were prepared in a low dead volume plate at 3-fold serial dilution, and then transferred 25 nL/well into a 384 well plate (Corning: #356661) by Agilent Bravo liquid dispenser. SMARCA2-HiBiT monoclonal HEK293T cells were added at 5,000/well/25 uL into the compound containing 384 well plate. After 24 h incubation, 25 uL/well of Nano-Glo HiBiT Lytic detection buffer (Promega: N3050) was added to the wells and incubate for 10 min on a shaker, centrifuged for 5 min, and then RLU was detected on a microplate reader (Envision, PerkinElmer). The RLU ratio values are normalized to percent inhibition as follows: % inhibition=((HC−LC)−(compound−LC))/(HC−LC))*100, where HC=high control=mean signal of DMSO only; LC=low control=mean signal of 100% inhibition of RLU by 1 μM PRT1001728. An 11-point dose response curve for each compound will be generated using normalized % inhibition to determine IC50 values based on the equation: Y=Bottom+((Top-Bottom)/(1+((IC50/X)^Slope))), where Y is the % inhibition in the presence of X inhibitor concentration; Top=the top plateau of the curve; Bottom=the bottom plateau of the curve; Slope=Hill coefficient; DC50=concentration of compound with 50% degradation in relation to top/high control. DC50 values were determined by using XLfit Model 205.

Sequence of SMARCA2 (P51531 whole entry): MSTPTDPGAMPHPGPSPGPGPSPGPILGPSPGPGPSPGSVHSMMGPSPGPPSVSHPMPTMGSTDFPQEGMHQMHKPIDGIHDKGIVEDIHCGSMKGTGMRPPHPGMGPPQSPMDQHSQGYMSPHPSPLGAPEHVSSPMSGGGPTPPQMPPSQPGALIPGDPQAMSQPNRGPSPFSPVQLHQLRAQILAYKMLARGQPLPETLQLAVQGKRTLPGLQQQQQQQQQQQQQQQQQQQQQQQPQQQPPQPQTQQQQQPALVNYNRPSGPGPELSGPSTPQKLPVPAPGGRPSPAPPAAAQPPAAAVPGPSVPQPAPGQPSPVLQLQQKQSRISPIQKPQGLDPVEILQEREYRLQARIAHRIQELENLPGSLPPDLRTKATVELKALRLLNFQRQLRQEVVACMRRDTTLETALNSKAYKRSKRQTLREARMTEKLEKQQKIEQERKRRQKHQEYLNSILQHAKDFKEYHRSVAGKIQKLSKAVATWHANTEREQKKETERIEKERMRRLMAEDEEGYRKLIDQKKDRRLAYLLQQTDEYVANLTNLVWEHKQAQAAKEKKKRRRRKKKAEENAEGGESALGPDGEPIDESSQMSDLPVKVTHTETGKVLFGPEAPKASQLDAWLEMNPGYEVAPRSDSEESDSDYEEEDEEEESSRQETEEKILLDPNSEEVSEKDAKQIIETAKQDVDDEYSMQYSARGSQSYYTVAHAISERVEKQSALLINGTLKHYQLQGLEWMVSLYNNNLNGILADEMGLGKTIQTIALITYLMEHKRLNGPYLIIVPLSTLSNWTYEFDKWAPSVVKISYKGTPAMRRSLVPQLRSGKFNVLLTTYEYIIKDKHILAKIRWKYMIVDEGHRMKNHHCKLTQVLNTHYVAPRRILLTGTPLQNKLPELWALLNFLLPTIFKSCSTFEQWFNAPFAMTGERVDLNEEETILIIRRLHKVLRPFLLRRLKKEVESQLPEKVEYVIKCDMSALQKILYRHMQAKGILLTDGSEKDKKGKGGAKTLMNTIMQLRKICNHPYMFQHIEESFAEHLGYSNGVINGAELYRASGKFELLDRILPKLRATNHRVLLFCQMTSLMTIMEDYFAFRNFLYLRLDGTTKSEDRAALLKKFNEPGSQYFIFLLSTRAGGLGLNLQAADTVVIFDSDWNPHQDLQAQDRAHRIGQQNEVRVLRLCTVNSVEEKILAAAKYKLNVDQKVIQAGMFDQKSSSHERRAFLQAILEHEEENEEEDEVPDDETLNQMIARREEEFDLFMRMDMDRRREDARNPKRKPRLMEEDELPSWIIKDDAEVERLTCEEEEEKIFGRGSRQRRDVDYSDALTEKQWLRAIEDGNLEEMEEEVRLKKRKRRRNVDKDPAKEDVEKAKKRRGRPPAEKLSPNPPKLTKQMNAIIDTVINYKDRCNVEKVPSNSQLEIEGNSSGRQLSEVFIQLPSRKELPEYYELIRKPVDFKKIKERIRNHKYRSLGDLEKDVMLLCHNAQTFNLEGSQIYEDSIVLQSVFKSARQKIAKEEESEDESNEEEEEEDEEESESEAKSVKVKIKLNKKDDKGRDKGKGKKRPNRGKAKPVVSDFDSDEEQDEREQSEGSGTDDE

SMILES | DC50 | Dmax
Cc1ncsc1-c1ccc([C@H](C)NC(=O)[C@@H]2C[C@@H](O)CN2C(=O)[C@@H](c2cc(OCCN3CCCC(N4CCN5c6cc(-c7ccccc7O)nnc6NC[C@H]5C4)CC3)no2)C(C)C)cc1 (stereo partly drawn) [Example 16, (2S,4R)-4-hydroxy-1-((2R)-2-(3-(2-(4-((S)-2-(2-hydroxyphenyl)-5,6,6a,7,9,10-hexahydro-8H-pyrazino[1′,2′:4,5]pyrazino[2,3-c]pyridazin-8-yl)azepan-1-yl)ethoxy)isoxazol-5-yl)-3-methylbutanoyl)-N-((S)-1-(4-(4-methylthiazol-5-yl)phenyl)ethyl)pyrrolidine-2-carboxamide] | < 0.1 µM | > 75%
Cc1ncsc1-c1ccc([C@H](C)NC(=O)[C@@H]2C[C@@H](OC(=O)C(C)C)CN2C(=O)[C@@H](c2cc(OCCN3CCN4c5cc(-c6ccccc6O)nnc5NC[C@H]4C3)no2)C(C)C)cc1 [Example 10, (3R,5S)-1-((R)-2-(3-(2-((S)-2-(2-hydroxyphenyl)-5,6,6a,7,9,10-hexahydro-8H-pyrazino[1′,2′:4,5]pyrazino[2,3-c]pyridazin-8-yl)ethoxy)isoxazol-5-yl)-3-methylbutanoyl)-5-(((S)-1-(4-(4-methylthiazol-5-yl)phenyl)ethyl)carbamoyl)pyrrolidin-3-yl isobutyrate] | < 0.1 µM | > 75%
Cc1ncsc1-c1ccc([C@H](C)NC(=O)[C@@H]2C[C@@H](O)CN2C(=O)[C@@H](c2cc(OC(C)CN3CCC(N4CCN5c6cc(-c7ccccc7O)nnc6NC[C@H]5C4)CC3)no2)C(C)C)cc1 (stereo partly drawn) [Example 17, (2S,4R)-4-hydroxy-1-((2R)-2-(3-((1-(4-((S)-2-(2-hydroxyphenyl)-5,6,6a,7,9,10-hexahydro-8H-pyrazino[1′,2′:4,5]pyrazino[2,3-c]pyridazin-8-yl)piperidin-1-yl)propan-2-yl)oxy)isoxazol-5-yl)-3-methylbutanoyl)-N-((S)-1-(4-(4-methylthiazol-5-yl)phenyl)ethyl)pyrrolidine-2-carboxamide] | < 0.1 µM | > 75%
Cc1ncsc1-c1ccc([C@H](C)NC(=O)[C@@H]2C[C@@H](O)CN2C(=O)[C@@H](c2cc(OCC(=O)N3CCC(N4CCN5c6cc(-c7ccccc7O)nnc6NC[C@H]5C4)C(C)C3)no2)C(C)C)cc1 (single isomer, unassigned) [Example 31] | < 0.1 µM | > 75%
Cc1ncsc1-c1ccc([C@H](C)NC(=O)[C@@H]2C[C@@H](O)CN2C(=O)[C@@H](NC(=O)CCN2CCC(CN3CCN4c5cc(-c6ccccc6O)nnc5NCC4C3)CC2)C(C)(C)C)cc1 (stereo partly drawn) [Example 8, (2S,4R)-4-hydroxy-1-((2S)-2-(3-(4-((2-(2-hydroxyphenyl)-5,6,6a,7,9,10-hexahydro-8H-pyrazino[1′,2′:4,5]pyrazino[2,3-c]pyridazin-8-yl)methyl)piperidin-1-yl)propanamido)-3,3-dimethylbutanoyl)-N-((S)-1-(4-(4-methylthiazol-5-yl)phenyl)ethyl)pyrrolidine-2-carboxamide] | 0.1 to 1 µM | > 75%
Cc1ncsc1-c1ccc([C@H](C)NC(=O)[C@@H]2C[C@@H](O)CN2C(=O)[C@@H](c2cc(OC(C)CN3CCCC(CN4CCN5c6cc(-c7ccccc7O)nnc6NC[C@H]5C4)C3)no2)C(C)C)cc1 (stereo partly drawn) [Example 23, (2S,4R)-4-hydroxy-1-((2R)-2-(3-((1-(3-(((S)-2-(2-hydroxyphenyl)-5,6,6a,7,9,10-hexahydro-8H-pyrazino[1′,2′:4,5]pyrazino[2,3-c]pyridazin-8-yl)methyl)piperidin-1-yl)propan-2-yl)oxy)isoxazol-5-yl)-3-methylbutanoyl)-N-((S)-1-(4-(4-methylthiazol-5-yl)phenyl)ethyl)pyrrolidine-2-carboxamide] | < 0.1 µM | > 75%
Cc1ncsc1-c1ccc([C@H](C)NC(=O)[C@@H]2C[C@@H](O)CN2C(=O)[C@@H](c2cc(OCCN3CCN(CCN4CCC(N5CCN6c7cc(-c8ccccc8O)nnc7NC[C@H]6C5)CC4)CC3)no2)C(C)C)cc1 [Example 21, (2S,4R)-4-hydroxy-1-((R)-2-(3-(2-(4-(2-(4-((S)-2-(2-hydroxyphenyl)-5,6,6a,7,9,10-hexahydro-8H-pyrazino[1′,2′:4,5]pyrazino[2,3-c]pyridazin-8-yl)piperidin-1-yl)ethyl)piperazin-1-yl)ethoxy)isoxazol-5-yl)-3-methylbutanoyl)-N-((S)-1-(4-(4-methylthiazol-5-yl)phenyl)ethyl)pyrrolidine-2-carboxamide] | < 0.1 µM | > 75%
Cc1ncsc1-c1ccc([C@H](C)NC(=O)[C@@H]2C[C@@H](O)CN2C(=O)[C@@H](c2cc(OCCN3CCC(CN4CCN5c6cc(-c7ccccc7O)nnc6NC[C@H]5C4)C3)no2)C(C)C)cc1 (stereo partly drawn) [Example 15, (2S,4R)-4-hydroxy-1-((2R)-2-(3-(2-(3-(((S)-2-(2-hydroxyphenyl)-5,6,6a,7,9,10-hexahydro-8H-pyrazino[1′,2′:4,5]pyrazino[2,3-c]pyridazin-8-yl)methyl)pyrrolidin-1-yl)ethoxy)isoxazol-5-yl)-3-methylbutanoyl)-N-((S)-1-(4-(4-methylthiazol-5-yl)phenyl)ethyl)pyrrolidine-2-carboxamide] | < 0.1 µM | > 75%
Cc1ncsc1-c1ccc([C@H](C)NC(=O)[C@@H]2C[C@@H](O)CN2C(=O)[C@@H](c2cc(OCCN3CCC(N4CCN5c6cc(-c7ccccc7O)nnc6NC[C@H]5C4)C(F)C3)no2)C(C)C)cc1 (stereo partly drawn) [Example 14, (2S,4R)-1-((2R)-2-(3-(2-(3-fluoro-4-((S)-2-(2-hydroxyphenyl)-5,6,6a,7,9,10-hexahydro-8H-pyrazino[1′,2′:4,5]pyrazino[2,3-c]pyridazin-8-yl)piperidin-1-yl)ethoxy)isoxazol-5-yl)-3-methylbutanoyl)-4-hydroxy-N-((S)-1-(4-(4-methylthiazol-5-yl)phenyl)ethyl)pyrrolidine-2-carboxamide] | < 0.1 µM | > 75%

Now from value to compound:

DC50 | Dmax | SMILES
< 0.1 µM | > 75% | Cc1ncsc1-c1ccc([C@H](C)NC(=O)[C@@H]2C[C@@H](O)CN2C(=O)[C@@H](NC(=O)OCCN2CCC(N3CCN4c5cc(-c6ccccc6O)nnc5NC[C@H]4C3)CC2)C(C)(C)C)cc1 [Example 80, 2-(4-((S)-2-(2-hydroxyphenyl)-5,6,6a,7,9,10-hexahydro-8H-pyrazino[1′,2′:4,5]pyrazino[2,3-c]pyridazin-8-yl)piperidin-1-yl)ethyl ((S)-1-((2S,4R)-4-hydroxy-2-(((S)-1-(4-(4-methylthiazol-5-yl)phenyl)ethyl)carbamoyl)pyrrolidin-1-yl)-3,3-dimethyl-1-oxobutan-2-yl)carbamate]
< 0.1 µM | > 75% | Cc1ncsc1-c1ccc([C@H](C)NC(=O)[C@@H]2C[C@@H](O)CN2C(=O)C(c2cc(CN3CCC(CN4CCN5c6cc(-c7ccccc7O)nnc6NC[C@H]5C4)CC3)no2)C(C)C)cc1 (stereo partly drawn) [Example 32, (2S,4R)-4-hydroxy-1-(2-(3-((4-(((S)-2-(2-hydroxyphenyl)-5,6,6a,7,9,10-hexahydro-8H-pyrazino[1′,2′:4,5]pyrazino[2,3-c]pyridazin-8-yl)methyl)piperidin-1-yl)methyl)isoxazol-5-yl)-3-methylbutanoyl)N-((S)-1-(4-(4-methylthiazol-5-yl)phenyl)ethyl)pyrrolidine-2-carboxamide]
< 0.1 µM | – | Cc1ncsc1-c1ccc([C@H](C)NC(=O)[C@@H]2C[C@@H](O)CN2C(=O)[C@@H](c2cc(CCCN3CCCC(CN4CCN5c6cc(-c7ccccc7O)nnc6NC[C@H]5C4)C3)no2)C(C)C)cc1 (single isomer, unassigned) [Example 89]
< 0.1 µM | > 75% | Cc1ncsc1-c1ccc([C@H](C)NC(=O)[C@@H]2C[C@@H](O)CN2C(=O)[C@@H](c2cc(OCCN3CCC(N4CCN5c6cc(-c7ccccc7O)nnc6NC[C@H]5C4)C(C)C3)no2)C(C)C)cc1 (single isomer, unassigned) [Example 56]
< 0.1 µM | > 75% | Cc1ncsc1-c1ccc([C@H](C)NC(=O)[C@@H]2C[C@@H](O)CN2C(=O)[C@@H](c2cc(OCCN3CCC(N4CCN5c6cc(-c7ccccc7O)nnc6NC[C@@H]5C4)CC3)no2)C(C)C)cc1 [Example 77, (2S,4R)-4-hydroxy-1-((R)-2-(3-(2-(4-((R)-2-(2-hydroxyphenyl)-5,6,6a,7,9,10-hexahydro-8H-pyrazino[1′,2′:4,5]pyrazino[2,3-c]pyridazin-8-yl)piperidin-1-yl)ethoxy)isoxazol-5-yl)-3-methylbutanoyl)-N-((S)-1-(4-(4-methylthiazol-5-yl)phenyl)ethyl)pyrrolidine-2-carboxamide]
